Test results taken from ChEMBL document CHEMBL3243928, “N-(2,4,5-Trihydroxyphenehtyl)normetazocine, a potential irreversible inhibitor of the narcotic receptor” (J Med Chem, 1977).
The source made the active and inactive calls. The rule behind the calls is not given here.

Tests used:
Mus musculus [1] = test: Inhibition of norepinephrine release in sc dosed mouse heart administered 60 mins before [3H]-norepinephrine challenge; type: functional
Mus musculus [2] = test: Toxicity in iv dosed mouse; type: organism-based; settings: in vivo
Mus musculus [3] = test: Toxicity in mouse at 5 mg/kg, iv; type: organism-based; set-up: dose 5 mg/kg, route intravenous; settings: in vivo
[4] = molecular target: Opioid receptor (Rattus norvegicus) (UniProt P33533+P34975+P33535); test: Ratio of morphine to compound for binding affinity to rat brain opiate receptor
Mus musculus [5] = test: Toxicity in mouse at 80 mg/kg, iv; type: organism-based; set-up: dose 80 mg/kg, route intravenous; settings: in vivo
Mus musculus [6] = test: Inhibition of norepinephrine release in mouse heart at >150 umol/kg, sc administered 60 mins before [3H]-norepinephrine challenge; type: functional, organism-based
NG108-15 [7] = test: Antagonist activity at opiate receptor in mouse/rat NG108-15 cells assessed as inhibition of adenylate cyclase activity at 2 x 10^-4 M after 3 mins; type: cell-based
NG108-15 [8] = test: Antagonist activity at opiate receptor in mouse/rat NG108-15 cells assessed as inhibition of adenylate cyclase activity at 10^-3 M after 3 mins; type: cell-based
Mus musculus [9] = test: Antinociceptive activity in mouse at 50 mg/kg, sc by hot-plate assay; type: functional, organism-based; set-up: dose 50 mg/kg
Mus musculus [10] = test: Ratio of morphine to compound for analgesic activity in ip dosed mouse; type: functional
NG108-15 [11] = test: Antagonist activity at opiate receptor in mouse/rat NG108-15 cells assessed as inhibition of adenylate cyclase activity at 10^-7 M after 3 mins; type: cell-based
[12] = Mus musculus, sc, read-out: ED50

Chain of Opioid receptor (Rattus norvegicus) (P33533 whole entry, looked up): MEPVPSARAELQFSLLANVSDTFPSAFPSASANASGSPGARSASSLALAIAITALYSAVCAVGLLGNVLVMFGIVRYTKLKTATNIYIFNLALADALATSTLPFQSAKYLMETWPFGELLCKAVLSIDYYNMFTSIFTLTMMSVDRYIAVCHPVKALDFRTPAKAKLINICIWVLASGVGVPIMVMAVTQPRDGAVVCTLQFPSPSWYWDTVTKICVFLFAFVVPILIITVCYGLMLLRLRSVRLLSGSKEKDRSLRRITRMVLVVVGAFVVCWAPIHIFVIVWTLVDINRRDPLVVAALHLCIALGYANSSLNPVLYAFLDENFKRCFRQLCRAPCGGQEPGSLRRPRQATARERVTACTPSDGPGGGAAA
Chain of Opioid receptor (Rattus norvegicus) (P33535 whole entry, looked up): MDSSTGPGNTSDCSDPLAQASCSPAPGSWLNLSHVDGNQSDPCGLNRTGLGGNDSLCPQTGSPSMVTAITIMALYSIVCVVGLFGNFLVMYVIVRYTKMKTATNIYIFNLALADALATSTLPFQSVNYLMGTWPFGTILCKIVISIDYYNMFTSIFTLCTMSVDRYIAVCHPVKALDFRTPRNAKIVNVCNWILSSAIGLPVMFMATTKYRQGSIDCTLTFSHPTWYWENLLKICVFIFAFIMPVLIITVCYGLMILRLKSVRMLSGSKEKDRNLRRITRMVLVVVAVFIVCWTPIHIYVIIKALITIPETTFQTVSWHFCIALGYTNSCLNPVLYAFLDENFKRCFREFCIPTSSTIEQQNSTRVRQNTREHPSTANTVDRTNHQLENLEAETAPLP
Chain of Opioid receptor (Rattus norvegicus) (P34975 whole entry, looked up): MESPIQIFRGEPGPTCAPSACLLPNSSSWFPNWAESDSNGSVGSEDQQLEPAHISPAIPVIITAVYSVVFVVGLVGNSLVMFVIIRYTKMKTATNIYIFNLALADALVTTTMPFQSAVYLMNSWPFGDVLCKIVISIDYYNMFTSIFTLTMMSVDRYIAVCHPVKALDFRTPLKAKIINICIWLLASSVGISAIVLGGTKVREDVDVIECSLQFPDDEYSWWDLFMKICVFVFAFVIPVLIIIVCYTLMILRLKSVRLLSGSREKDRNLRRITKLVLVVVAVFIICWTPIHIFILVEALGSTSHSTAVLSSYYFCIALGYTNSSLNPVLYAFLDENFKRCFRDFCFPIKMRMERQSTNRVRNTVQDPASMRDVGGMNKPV

CN(C)CCc1ccc(O)cc1 [HORDENINE]
ED50 (Mus musculus [1]; [12]): > 400 µmol/kg

C[C@H]1C2Cc3ccc(O)cc3C1(C)CCN2 (stereo partly drawn)
Activity (Mus musculus [2]): Toxic
LD100 (Mus musculus [3]): 10 mg/kg

Nc1ccc(CCN2CC[C@]34CCCC[C@H]3[C@H]2Cc2ccc(O)cc24)cc1
Ratio [4]: > 10

NCCc1cc(O)c(O)cc1O [OXIDOPAMINE]
ED50 (Mus musculus [1]; [12]): 6.8 µmol/kg

CC1C2Cc3ccc(O)cc3C1(C)CCN2CCc1cc(O)c(O)cc1O.I (stereo not drawn)
Activity (Mus musculus [5]): Non-toxic
inhibition (Mus musculus [6]): inactive
inhibition (NG108-15 [7]): inactive
inhibition (NG108-15 [8]): Active
ED50 (Mus musculus [1]): 0 µmol/kg
Activity (Mus musculus [9]): Active

COC(=O)[C@H]1[C@@H](OC(=O)c2ccccc2)C[C@@H]2CC[C@H]1N2C [COCAINE]
ED50 (Mus musculus [1]): 0 µmol/kg

CC1C2Cc3ccc(O)cc3C1(C)CCN2CCc1ccc(N)cc1 (stereo not drawn)
Ratio (Mus musculus [10]): 20

CC(N)Cc1ccc(O)cc1 (stereo not drawn) [HYDROXYAMPHETAMINE]
ED50 (Mus musculus [1]; [12]): 13 µmol/kg

CC1C2Cc3ccc(O)cc3C1(C)CCN2CCc1ccccc1 (stereo not drawn) [PHENAZOCINE]
Ratio (Mus musculus [10]): 10

CC(N)Cc1cc(O)c(O)cc1O (stereo not drawn)
ED50 (Mus musculus [1]; [12]): 4.2 µmol/kg

COc1ccc(CCN2CCC3(C)c4cc(O)ccc4CC2C3C)cc1 (stereo not drawn)
Ratio (Mus musculus [10]): 8

CN1CC[C@]23c4c5ccc(O)c4O[C@H]2[C@@H](O)C=C[C@H]3[C@H]1C5
inhibition (NG108-15 [11]): Active
